Experimental data reported in patent US12496320B2, “Lactobacillus sp. strain and use thereof” (LG HOUSEHOLD & HEALTH CARE LTD., priority 2020, dated 2025).

Legend:
Assay type in all cases: cell-based
MNT-1 melanoma cells = assay: Melanin production inhibitory ability; conditions: 200 μg/mL, 72 hours
Experimental: The melanin production inhibitory ability (brightening) of the Lactobacillus pentosus […]-1 strain of the present invention was investigated. Specifically, MNT-1 melanoma cells were prepared by adding 10% FBS to DMEM (Dulbecco's Modified Eagle's Medium) as a basal medium. Then, the MNT-1 melanoma cells were seeded in a 6-well plate at a concentration of 1 to 2×10^5 cells/mL and cultured for 24 hours. Subsequently, the strain of the present invention was treated, and the cells were cultured for 72 hours and then recovered. Then, after centrifugation at 13,000 rpm for 1 minute and removal of the supernatant, 300 μL of a 0.5% Triton X-100 solution was added to the pellet to lyse the cells. Thereafter, centrifugation was performed at 13,000 rpm for 3 minutes, and the pellet and supernatant were recovered. Then, 100 μL of 0.5N NaOH was added to the pellet, and the cells were incubated overnight to dissolve melanin, and then the absorbance at 450 nm was measured using an ELISA reader.

[1] = test system: raw 264.7 mouse macrophages; assay: Nitric oxide production inhibitory ability, GRIESS method, LPS stimulated; conditions: 100 uM, 500 ng/mL LPS
Experimental: The NO production inhibitory ability of the Lactobacillus pentosus NIFSLG-1 strain of the present invention was investigated. Specifically, the nitric oxide (NO) production ability in raw 264.7 mouse macrophages was evaluated for anti-inflammatory efficacy using the GRIESS method. First, the Raw 264.7 cells (2×10^5 cells/well) were dispensed into a 24-well culture plate, cultured in a DMEM medium containing 10% FBS (fetal bovine serum) for 24 hours, and then cultured in a medium without FBS for 12 hours. Subsequently, […] and pretreated for 30 minutes, and added to the cells with LPS (lipopolysaccharide) to a final concentration of 500 ng/ml, and then cultured for 18 hours.
Thereafter, the supernatant was recovered, and the GRIESS reagent was added, followed by reacting at room temperature for 15 minutes, and the absorbance was measured at 540 nm to evaluate the relative NO production and production inhibitory ability.

skin fibroblasts = assay: Collagen synthesis effect, ELISA; conditions: concentration 100 (unit not given), 24 hours
Experimental: The efficacy of collagen synthesis was investigated for the Lactobacillus pentosus […]-1 strain of the present invention. Specifically, after primary culture of skin fibroblasts, DMEM (Dulbecco's Modified Eagle's Medium) with an addition of 10% FBS was used as a basal medium for the skin fibroblasts. Then, the skin fibroblasts were seeded in a 48-well plate at a concentration of 2 to 5×10^4 cells/mL and cultured for 24 hours. Subsequently, the growth medium was removed, and a medium containing the strain of the present invention (without FBS added) was added, and the cells were cultured for 24 hours, and thereafter the cell culture solution was taken and subjected to ELISA analysis.

Compound: OC[C@H]1O[C@@H](Oc2ccc(O)cc2)[C@H](O)[C@@H](O)[C@@H]1O [Arbutin]
- Melanin content (% control) (MNT-1 melanoma cells): 74.37 % control

Compound: CNC(=N)NCCC[C@H](N)C(=O)O [L-NMMA]
- Inhibition Rate (% control) of NO production [1]: 81.2 % control

Compound: O=C1O[C@H]([C@@H](O)CO)C(O)=C1O [Vita C]
- Collagen (% control) (skin fibroblasts): 161.91 % control
